From ChEMBL document CHEMBL4184279, “Synthesis, antimicrobial activity and acid dissociation constants of methyl 5,5-diphenyl-1-(thiazol-2-yl)pyrrolidine-2-carboxylate derivatives” (Bioorg Med Chem Lett, 2018)
Converted amounts (≈) assume the structure as drawn.

What was measured:
[1] = Acid dissociation constant, pKa for NH group of the compound in DMSO-water mixture at 25 +/- 0.1 degC by potentiometric method; assay type: physicochemical
Aeromonas hydrophila = assay: Antibacterial activity against Aeromonas hydrophila ATCC 95080; assay type: functional
[2] = Acid dissociation constant, pKa for SH group of the compound in DMSO-water mixture at 25 +/- 0.1 degC by potentiometric method; assay type: physicochemical
Acinetobacter baumannii = assay: Antibacterial activity against Acinetobacter baumannii ATCC 02026; assay type: functional
Candida tropicalis = assay: Antifungal activity against Candida tropicalis ATCC 750 after 48 hrs by microdilution broth method; assay type: functional; conditions: ATCC 750, 48 h
[3] = Acid dissociation constant, pKa for OH group of the compound in DMSO-water mixture at 25 +/- 0.1 degC by potentiometric method; assay type: physicochemical
Nakaseomyces glabratus = assay: Antifungal activity against Candida glabrata ATCC 90030 after 48 hrs by microdilution broth method; assay type: functional; conditions: ATCC 90030, 48 h
Candida parapsilosis = assay: Antifungal activity against Candida parapsilosis ATCC 22019 after 48 hrs by microdilution broth method; assay type: functional; conditions: Lodderomyces parapsilosis, ATCC 22019, 48 h
[4] = test system: Mycobacterium tuberculosis; assay: Antimycobacterial activity against Mycobacterium tuberculosis H37Rv after 7 days by REMA; assay type: functional; conditions: 168 h
Staphylococcus aureus = assay: Antibacterial activity against Staphylococcus aureus ATCC 25925; assay type: functional
Bacillus spizizenii = assay: Antibacterial activity against Bacillus subtilis ATCC 6633; assay type: functional
Escherichia coli = assay: Antibacterial activity against Escherichia coli; assay type: functional

| SMILES | pKa [1] | MIC (Aeromonas hydrophila) [µg/mL] | pKa [2] | MIC (Acinetobacter baumannii) [µg/mL] | MIC (Candida tropicalis) [µg/mL] | pKa [3] | MIC (Nakaseomyces glabratus) [µg/mL] | MIC (Candida parapsilosis) [µg/mL] | MIC [4] [µg/mL] | MIC (Staphylococcus aureus) [µg/mL] | MIC (Bacillus spizizenii) [µg/mL] | MIC (Escherichia coli) [µg/mL] |
| --- | --- | --- | --- | --- | --- | --- | --- | --- | --- | --- | --- | --- |
| COC(=O)[C@H]1[C@@H](C(=O)OC)C(c2ccccc2)(c2ccccc2)N(c2nc(-c3ccccc3)c(C(=O)c3ccc(Br)cc3)s2)[C@H]1C(=O)OC | 3.27 | 62.5 (≈ 84.5 µM) | 6.02 | 62.5 (≈ 84.5 µM) | 125 (≈ 169 µM) | 9.23 | 31.2 (≈ 42.3 µM) | 125 (≈ 169 µM) | 3.91 (≈ 5.29 µM) | 125 (≈ 169 µM) | 62.5 (≈ 84.5 µM) | 125 (≈ 169 µM) |
| COC(=O)[C@H]1C[C@@H](C(=O)OC)C(c2ccccc2)(c2ccccc2)N1c1nc(-c2ccccc2)c(C(=O)c2ccccc2)s1 | 2.99 | 250 (≈ 415 µM) | 6.58 | 250 (≈ 415 µM) | 62.5 (≈ 104 µM) | 9.67 | 31.2 (≈ 51.8 µM) | 62.5 (≈ 104 µM) | 15.6 (≈ 25.9 µM) | 125 (≈ 207 µM) | 125 (≈ 207 µM) | 125 (≈ 207 µM) |
| COC(=O)[C@H]1C[C@@H](C(=O)OC)C(c2ccccc2)(c2ccccc2)N1c1nc(-c2ccccc2)c(C(=O)c2ccc(C#N)cc2)s1 | 3.78 | 250 (≈ 398 µM) | 5.61 | 250 (≈ 398 µM) | 62.5 (≈ 99.6 µM) | 8.67 | 31.2 (≈ 49.8 µM) | 62.5 (≈ 99.6 µM) | 15.6 (≈ 24.9 µM) | 125 (≈ 199 µM) | 250 (≈ 398 µM) | 125 (≈ 199 µM) |
| COC(=O)[C@H]1C[C@@H](C(=O)OC)C(c2ccccc2)(c2ccccc2)N1c1nc(-c2ccccc2)c(C(=O)c2ccc(OC)cc2)s1 | 2.46 | 125 (≈ 198 µM) | 6.31 | 250 (≈ 395 µM) | 62.5 (≈ 98.8 µM) | 10 | 62.5 (≈ 98.8 µM) | 125 (≈ 198 µM) | 15.6 (≈ 24.7 µM) | 250 (≈ 395 µM) | 250 (≈ 395 µM) | 250 (≈ 395 µM) |
| COC(=O)[C@H]1C[C@@H](S(=O)(=O)c2ccccc2)C(c2ccccc2)(c2ccccc2)N1c1nc(-c2ccccc2)c(C(=O)c2ccc(F)cc2)s1 | 3.4 | 62.5 (≈ 88.9 µM) | 5.84 | 62.5 (≈ 88.9 µM) | 62.5 (≈ 88.9 µM) | 8.73 | 31.2 (≈ 44.5 µM) | 62.5 (≈ 88.9 µM) | 1.96 (≈ 2.79 µM) | 125 (≈ 178 µM) | 62.5 (≈ 88.9 µM) | 125 (≈ 178 µM) |
| COC(=O)[C@H]1C[C@@H](S(=O)(=O)c2ccccc2)C(c2ccccc2)(c2ccccc2)N1c1nc(-c2ccccc2)c(C(=O)c2ccc(C#N)cc2)s1 | 3.56 | 62.5 (≈ 88 µM) | 5.78 | 62.5 (≈ 88 µM) | 62.5 (≈ 88 µM) | 8.83 | 31.2 (≈ 44 µM) | 62.5 (≈ 88 µM) | 3.91 (≈ 5.51 µM) | 125 (≈ 176 µM) | 62.5 (≈ 88 µM) | 125 (≈ 176 µM) |
| COC(=O)[C@H]1[C@@H](C(=O)OC)C(c2ccccc2)(c2ccccc2)N(c2nc(-c3ccccc3)c(C(=O)c3ccc(C#N)cc3)s2)[C@H]1C(=O)OC | 3.53 | 62.5 (≈ 91.1 µM) | 5.66 | 62.5 (≈ 91.1 µM) | 62.5 (≈ 91.1 µM) | 8.9 | 31.2 (≈ 45.6 µM) | 31.2 (≈ 45.6 µM) | 7.81 (≈ 11.4 µM) | 125 (≈ 182 µM) | 62.5 (≈ 91.1 µM) | 125 (≈ 182 µM) |
| COC(=O)[C@H]1C[C@@H](C(=O)OC)C(c2ccccc2)(c2ccccc2)N1c1nc(-c2ccccc2)c(C(=O)c2ccc(Br)cc2)s1 | 3.11 | 250 (≈ 367 µM) | 5.99 | 125 (≈ 183 µM) | 62.5 (≈ 91.7 µM) | 9.91 | 62.5 (≈ 91.7 µM) | 31.2 (≈ 45.8 µM) | 7.81 (≈ 11.5 µM) | 250 (≈ 367 µM) | 250 (≈ 367 µM) | 250 (≈ 367 µM) |
| COC(=O)[C@H]1[C@@H](C(=O)OC)C(c2ccccc2)(c2ccccc2)N(c2nc(-c3ccccc3)c(C(=O)c3ccc(OC)cc3)s2)[C@H]1C(=O)OC | 2.83 | 62.5 (≈ 90.5 µM) | 6.77 | 62.5 (≈ 90.5 µM) | 62.5 (≈ 90.5 µM) | 10.2 | 31.2 (≈ 45.2 µM) | 62.5 (≈ 90.5 µM) | 15.6 (≈ 22.6 µM) | 125 (≈ 181 µM) | 125 (≈ 181 µM) | 250 (≈ 362 µM) |
| COC(=O)[C@H]1C[C@@H](C(=O)OC)C(c2ccccc2)(c2ccccc2)N1c1nc(-c2ccccc2)c(C(=O)c2ccc(F)cc2)s1 | 2.63 | 125 (≈ 201 µM) | 6.09 | 250 (≈ 403 µM) | 62.5 (≈ 101 µM) | 9.69 | 62.5 (≈ 101 µM) | 62.5 (≈ 101 µM) | 15.6 (≈ 25.2 µM) | 125 (≈ 201 µM) | 250 (≈ 403 µM) | 125 (≈ 201 µM) |
| COC(=O)[C@H]1C[C@@H](S(=O)(=O)c2ccccc2)C(c2ccccc2)(c2ccccc2)N1c1nc(-c2ccccc2)c(C(=O)c2ccccc2)s1 | 3.26 | 62.5 (≈ 91.3 µM) | 5.9 | 31.2 (≈ 45.6 µM) | 31.2 (≈ 45.6 µM) | 8.64 | 31.2 (≈ 45.6 µM) | 62.5 (≈ 91.3 µM) | 3.91 (≈ 5.71 µM) | 125 (≈ 183 µM) | 62.5 (≈ 91.3 µM) | 125 (≈ 183 µM) |
| COC(=O)[C@H]1C[C@@H](S(=O)(=O)c2ccccc2)C(c2ccccc2)(c2ccccc2)N1c1nc(-c2ccccc2)c(C(=O)c2ccc(OC)cc2)s1 | 3.35 | 62.5 (≈ 87.4 µM) | 6.01 | 62.5 (≈ 87.4 µM) | 62.5 (≈ 87.4 µM) | 9.28 | 31.2 (≈ 43.7 µM) | 62.5 (≈ 87.4 µM) | 3.91 (≈ 5.47 µM) | 125 (≈ 175 µM) | 62.5 (≈ 87.4 µM) | 125 (≈ 175 µM) |
| COC(=O)[C@H]1[C@@H](C(=O)OC)C(c2ccccc2)(c2ccccc2)N(c2nc(-c3ccccc3)c(C(=O)c3ccccc3)s2)[C@H]1C(=O)OC | 3.35 | 62.5 (≈ 94.6 µM) | 5.81 | 62.5 (≈ 94.6 µM) | 62.5 (≈ 94.6 µM) | 8.5 | 31.2 (≈ 47.3 µM) | 62.5 (≈ 94.6 µM) | 15.6 (≈ 23.6 µM) | 125 (≈ 189 µM) | 62.5 (≈ 94.6 µM) | 125 (≈ 189 µM) |
| COC(=O)[C@H]1[C@@H](C(=O)OC)C(c2ccccc2)(c2ccccc2)N(c2nc(-c3ccccc3)c(C(=O)c3ccc(F)cc3)s2)[C@H]1C(=O)OC | 2.73 | 62.5 (≈ 92.1 µM) | 6.37 | 62.5 (≈ 92.1 µM) | 62.5 (≈ 92.1 µM) | 10.2 | 31.2 (≈ 46 µM) | 62.5 (≈ 92.1 µM) | 15.6 (≈ 23 µM) | 125 (≈ 184 µM) | 62.5 (≈ 92.1 µM) | 125 (≈ 184 µM) |
| COC(=O)[C@H]1C[C@@H](S(=O)(=O)c2ccccc2)C(c2ccccc2)(c2ccccc2)N1c1nc(-c2ccccc2)c(C(=O)c2ccc(Br)cc2)s1 | 2.97 | 62.5 (≈ 81.8 µM) | 5.99 | 31.2 (≈ 40.9 µM) | 62.5 (≈ 81.8 µM) | 9.53 | 31.2 (≈ 40.9 µM) | 62.5 (≈ 81.8 µM) | 0.98 (≈ 1.28 µM) | 125 (≈ 164 µM) | 62.5 (≈ 81.8 µM) | 125 (≈ 164 µM) |
| CC1(C)S[C@@H]2[C@H](NC(=O)[C@H](N)c3ccccc3)C(=O)N2[C@H]1C(=O)O [AMPICILLIN] | – | 31.2 (≈ 89.4 µM) | – | 125 (≈ 358 µM) | – | – | – | – | – | 31.2 (≈ 89.4 µM) | 0.98 (≈ 2.8 µM) | 15.6 (≈ 44.7 µM) |
| CC[C@@H](CO)NCCN[C@@H](CC)CO [ETHAMBUTOL] | – | – | – | – | – | – | – | – | 1.96 (≈ 9.59 µM) | – | – | – |
| OC(Cn1cncn1)(Cn1cncn1)c1ccc(F)cc1F [FLUCONAZOLE] | – | – | – | – | 15.6 (≈ 51 µM) | – | 3.9 (≈ 12.7 µM) | 3.9 (≈ 12.7 µM) | – | – | – | – |
| NNC(=O)c1ccncc1 [ISONIAZID] | – | – | – | – | – | – | – | – | 0.98 (≈ 7.15 µM) | – | – | – |
